Measured values taken from article PMC12333940, “A prometabolite strategy inhibits cardiometabolic disease in an ApoE^–/– murine model of atherosclerosis” (JCI Insight, 2025).
Values joined by “and” are separate entries in the source; they are usually repeats but may differ in a detail not shown here. Equal entries are not always repeated.

How the values were obtained:
RAW 264.7 macrophages = experiment: Cell viability assay (MTS); type: cell-based; settings: at 4 mM and above
Procedure: CellTiter 96 AQueous one Solution Cell Proliferation Assay (MTS) (Promega, G3582) was used according to the manufacturer’s instructions to analyze cytotoxicity of SerBut and NaBut at various concentrations (0.15–12 mM) in RAW 264.7 macrophages. Viability values were normalized to untreated cells (100%) and Triton X-100–treated cells (0%). Since absorbance is directly proportional to the number of living cells in culture, values greater than 100% indicate cell growth compared with controls.

ApoE^–/– mice on an HFD [1] = experiment: Oil Red O staining of aortic root plaque; type: in vivo, mouse; design: ORO Quantification ORO+ Heart: unit not given here; settings: individual mice, experiments 1 and 2
Procedure: For 6 weeks, mice were freely administered water, water containing 150 mM SerBut, or water containing an equimolar amount of NaBut. SerBut water was pH adjusted using 10 M NaOH to a final pH of 7.4. […] In concert, mice were fed an HFD with 42% from fat and 0.2% total cholesterol (Envigo, TD-88137) ad libitum. After 6 weeks, mice were euthanized. The lMLNs, ILNs, spleen, heart, and aorta were harvested and processed for flow cytometry analysis ([67]). The liver was harvested and part was homogenized in tissue protein extraction reagent buffer (Invitrogen, 78510) supplemented with protease inhibitor mini tablets (Thermo Fisher Scientific, PIA32955) for Western blotting and qPCR. The remaining liver was fixed with 4% paraformaldehyde and embedded in paraffin for histological analysis.
Hearts were fixed in 4% paraformaldehyde for 24 hours and cryopreserved with sucrose (15% sucrose for 24 hours, 30% sucrose for 24 hours, 1:1 30% sucrose and OCT) before being embedded in OCT (Thermo Fisher Scientific). Frozen embedded samples were sectioned at 8 μm until all 3 leaflets were visible. Aortic root sections were brought to room temperature and rehydrated with PBS. Staining solution was freshly prepared by mixing 3:2 Oil Red O (0.5% in isopropanol, Sigma Aldrich) to water. The solution was filtered through a 0.22 μm PES syringe filter (Millipore) and pipetted onto sections. After 15 minutes in a sealed dark chamber, sections were washed 3 times with water and imaged. Images were analyzed using QuPath (v0.5.0) (https://qupath.github.io). Each leaflet was circled broadly to include the plaque and then subsequently trained on the QuPath pixel classifier using the software’s artificial neural network. Training images were then tested and validated to identify the plaques to calculate their area and exclude non-plaque structures in the image. Plaque sizes were subsequently averaged and used to determine percentage Oil Red O–positive plaque area in the leaflet.

ApoE^–/– mice on an HFD [2] = experiment: Immunofluorescent staining of the aortic root (CD68, iNOS, DAPI); type: in vivo, mouse; design: Immunoflourescence Quantification #Cells/Area / Immunoflourescence Quantification #iNOS+/Area: unit not given beside the values
Source text: SerBut water was pH adjusted using 10 M NaOH to a final pH of 7.4. […] After 6 weeks, mice were euthanized. […] The liver was harvested and part was homogenized in tissue protein extraction reagent buffer (Invitrogen, 78510) supplemented with protease inhibitor mini tablets (Thermo Fisher Scientific, PIA32955) for Western blotting and qPCR. […] Aortic root sections were brought to room temperature and rehydrated with PBS and permeabilized with 10% dimethyl sulfoxide (DMSO). […] Sections were washed again in PBS with 0.1% Tween 20 and then PBS and mounted with ProLong Gold Antifade Mountant with DAPI (Invitrogen). Slides were imaged with a DMI8 inverted fluorescence microscope (Leica Microsystems) and analyzed with QuPath (v0.5.0).

ApoE^–/– mice on an HFD [3] = experiment: Flow cytometry of the aorta; type: in vivo, mouse; design: Aorta Flow CD11b+F480+ / Aorta Flow CD11b+Ly6Chi: unit not given here
Source text: SerBut water was pH adjusted using 10 M NaOH to a final pH of 7.4. […] After 6 weeks, mice were euthanized. […] The liver was harvested and part was homogenized in tissue protein extraction reagent buffer (Invitrogen, 78510) supplemented with protease inhibitor mini tablets (Thermo Fisher Scientific, PIA32955) for Western blotting and qPCR. […] The heart with the ascending and descending aorta to the diaphragm was harvested. The perivascular adipose tissue was carefully removed by microdissection while keeping the adventitia intact. […] After 45 minutes of digestion at 37°C with orbital shaking, aortas were passed through a 70 μm cell strainer, rinsed, pelleted, and plated into a U-bottom 96-well microplate for staining. […] Cells were washed in PBS supplemented with 2% FBS (FACS buffer) and stained for 30 minutes on ice with surface antibodies at a 1:200 dilution in a 1:1 mixture of FACS buffer and Brilliant Stain Buffer (BD Biosciences). Cells were washed with FACS buffer and PBS and fixed with 2% paraformaldehyde on ice for 20 minutes. Cells were washed twice with PBS and resuspended in FACS buffer. Precision count beads (BioLegend) were used to determine absolute cell counts. In this study, antibodies used included those against CD16/CD32 (BioLegend, clone 93, catalog 101302), CCR2 (PE; […] BD Biosciences, clone HL3, catalog 558079, BD Biosciences), […] (APC; […] BD Biosciences, clone 30-F11, catalog 564225), F4/80 (BUV496; BD Biosciences, clone T45-2342, catalog 750644), […].5; BioLegend, clone M5/114.15.2, catalog 107626), Ly-6C (APC-Cy7; […]

[4] = aortic root, individual samples

CCCC(=O)[O-].[Na+] [NaBut, sodium butyrate, reference compound]
cell viability (RAW 264.7 macrophages): significantly reduced cell viability | ORO Quantification ORO+ Heart (ApoE^–/– mice on an HFD [1]): 19.7151 and 33.3577 and 43.2157 and 32.1745 and 46.8072 and 36.2576 and 32.4176 and 40.5144 and 34.2074 and 37.9228 | CD68^+ cells and iNOS^+ cells per unit area atherosclerotic lesion (ApoE^–/– mice on an HFD [2]; 6 weeks, compared with water- and SerBut-treated groups): increased | Immunoflourescence Quantification #CD68 (ApoE^–/– mice on an HFD [2]; [4]): 1074 and 944 and 743 and 1249 and 728 and 1069 and 1053 and 1330 and 954 and 511 | Immunoflourescence Quantification #Cells (ApoE^–/– mice on an HFD [2]; [4]): 1302 and 1139 and 1013 and 1531 and 949 and 1262 and 1685 and 1684 and 1364 and 682 | Immunoflourescence Quantification #Cells/Area (ApoE^–/– mice on an HFD [2]; [4]): 0.004391 and 0.005279 and 0.00411 and 0.005114 and 0.004088 and 0.003979 and 0.00428 and 0.00408 and 0.005037 and 0.004831 | Immunoflourescence Quantification #iNOS+ (ApoE^–/– mice on an HFD [2]; [4]): 500 and 473 and 401 and 466 and 354 and 445 and 695 and 625 and 264 | Immunoflourescence Quantification #iNOS+/Area (ApoE^–/– mice on an HFD [2]; [4]): 0.001686 and 0.002192 and 0.001627 and 0.001557 and 0.001525 and 0.001403 and 0.001765 and 0.001514 and 0.00187 | Immunoflourescence Quantification CD68+/Area (ApoE^–/– mice on an HFD [2]; [4]): 0.003622 and 0.004376 and 0.003015 and 0.004172 and 0.003136 and 0.00337 and 0.002675 and 0.003222 and 0.003523 and 0.003619 | Immunoflourescence Quantification CD68+iNOS+ (ApoE^–/– mice on an HFD [2]; [4]): 445 and 379 and 322 and 434 and 281 and 393 and 535 and 517 and 202 | Immunoflourescence Quantification CD68+iNOS+/Area (ApoE^–/– mice on an HFD [2]; [4]): 0.001501 and 0.001757 and 0.001307 and 0.00145 and 0.001211 and 0.001239 and 0.001359 and 0.001252 and 0.001431 | CD45^+ total leukocytes, CD11b^+ monocytes and CCR2^+CD11b^+ monocytes in the aorta (ApoE^–/– mice on an HFD [3]; 6 weeks, compared with control groups): did not | CD11c^+MHCII^hi dendritic cells, CD11b^+F480^+ macrophages and CD19^+ B cells in the aorta (ApoE^–/– mice on an HFD [3]; 6 weeks, compared with water controls): significantly reduced | Aorta Flow B cell Count (ApoE^–/– mice on an HFD [3]; individual mice): 315.036 and 240.601 and 72.6582 and 149.307 and 158.07 and 295.152 and 181.142 and 268.448 and 139.825 and 307.858 | Aorta Flow CD11b+F480+ (ApoE^–/– mice on an HFD [3]; individual mice): 25.0597 and 7.5188 and 3.353 and 10.7501 and 8.319 and 26.3753 and 5.998 and 6.129 and 4.994 and 11.9789 | Aorta Flow CD11b+Ly6Chi (ApoE^–/– mice on an HFD [3]; individual mice): 10.7965 and 20.8384 and 26.2172 and 17.9684 and 39.3795 and 20.0501 and 6.707 and 17.9169 and 5.942 and 82.8937 | Aorta Flow T Cell Count (ApoE^–/– mice on an HFD [3]; individual mice): 829.356 and 329.574 and 100.604 and 316.531 and 316.14 and 663.15 and 236.324 and 566.315 and 510.612 and 977.48 | Aorta Flow CD11b+ Count (ApoE^–/– mice on an HFD [3]; individual mice, experiment 2): 159.148 and 69.3047 and 197.085 and 244.83 and 668.174 and 122.361 and 438.833 and 237.203 and 489.938 and 511.933 | Aorta Flow CD11b+CCR2+ (ApoE^–/– mice on an HFD [3]; individual mice, experiment 2): 22.5564 and 10.0604 and 29.8614 and 43.9743 and 133.132 and 27.5912 and 84.5795 and 57.4282 and 142.549 and 96.6587 | Aorta Flow CD45 Count (ApoE^–/– mice on an HFD [3]; individual mice, experiment 2): 1122.81 and 480.662 and 1340.18 and 1250.3 and 2283.35 and 857.726 and 1975.97 and 1910.11 and 5505.51 and 4110.98 | Aorta Flow CD11c+MHCIIhi (ApoE^–/– mice on an HFD [3]; individual mice, cell count): 16.2907 and 5.589 and 14.3335 and 20.2044 and 75.358 and 13.1958 and 30.6448 and 26.2172 and 32.3431 and 60.8592
